The target in assay [1] is T1, indoleamine 2,3-dioxygenase (IDO) (Homo sapiens, UniProt P14902).
T1 construct: host or cells: HeLa cells treated with IFNγ (25 ng/mL)
In words: HeLa cell-based indoleamine 2,3-dioxygenase (IDO) assay (IFNγ-induced kynurenine production, absorbance 480 nm). The settings on record: HeLa cells, IFNγ 25 ng/mL, 48 hour incubation. Here is the method: Assessment of inhibitor activity in HeLa cell-based indoleamine 2,3-dioxygenase (IDO) assay:
HeLa (ATCC® CCL-2) cells were obtained from the ATCC® and cultured in Dulbecco's Modified Eagle Medium supplemented with 4.5 g/L glucose, […] L-glutamine and […] (#10-013-CV, Corning), 2 mM L-alanyl-L-glutamine dipeptide (#35050-061, Gibco), 100U/mL penicillin, 100 μg/mL stroptomycin (#SV30010. HyClone) and 10% fetal bovine serum (#SH30071.03 HyClone). Cells were maintained in a humidified incubator at 37° C. in 5% CO2.
IDO activity was assessed as a function of kynurenine production as follows: HeLa cells were seeded in a 96-well culture plate at a density of 5,000 cells/well and allowed to equilibrate overnight. After 24 hours, the media was aspirated and replaced with media containing IFNγ (#285-IF/CF, R&D Systems) at a final concentration of 25 ng/mL. A serial dilution of each test compound was added to the cells in a total volume of 200 μL of culture medium. After a further 48 hour incubation, 170 μL of supernatant was transferred from each well to a fresh 96-well plate, 12.1 μL of 6.1N trichloroacetic acid (#T0699, Sigma-Aldrich) was added to each well and mixed, followed by incubation at 65° C. for 20 minutes to hydrolyze N-formylkynurenine, the product of indoleamine 2,3-dioxygenase, to kynurenine. The reaction mixture was then centrifuged for 10 mins at 500×g to sediment the precipitate. 100 μL of the supernatant was transferred from each well to a fresh 96-well plate. 100 μl of 2% (w/v) p-dimethylaminobenzaldehyde (#15647-7, Sigma-Aldrich) in acetic acid (#A6283, Sigma-Aldrich) was added to each well mixed and incubated at room temperature for 20 mins. Kynurenine concentrations were determined by measuring absorbance at 480 nm and calibrating against an L-kynurenine (#K8625, Sigma-Aldrich) standard curve using a SPECTRAMAX® M2e microplate reader (Molecular Devices). The percentage activity at each inhibitor concentration was determined and IC50 values assessed using nonlinear regression.

Another assay deals with T2, human IDO1 (Homo sapiens, UniProt P14902).
T2 construct: expressed in transfected cells
T2 sequence (P14902 whole entry): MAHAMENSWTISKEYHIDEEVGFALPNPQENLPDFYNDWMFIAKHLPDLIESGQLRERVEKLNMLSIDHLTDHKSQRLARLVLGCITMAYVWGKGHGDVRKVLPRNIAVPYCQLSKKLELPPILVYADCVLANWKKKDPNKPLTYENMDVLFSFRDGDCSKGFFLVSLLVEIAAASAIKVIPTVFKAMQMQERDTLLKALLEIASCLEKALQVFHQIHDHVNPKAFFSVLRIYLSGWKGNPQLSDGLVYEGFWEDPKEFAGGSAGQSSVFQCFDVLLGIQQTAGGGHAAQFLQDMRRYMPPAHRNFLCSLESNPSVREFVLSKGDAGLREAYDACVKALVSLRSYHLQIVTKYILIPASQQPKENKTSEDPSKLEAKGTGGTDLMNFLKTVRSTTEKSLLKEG
In words: IDO inhibition assay in HEK293 cells stably expressing human IDO1 (kynurenine, Ehrlich reagent, absorbance 490 nm). The class given is cell-based. The settings on record: 20 hours incubation, read-out: IDO1 HEK Human IC50. Here is the method:
HEK293 cells were transfected with a pCDNA-based mammalian expression vector harboring human IDO1 cDNA (NM 002164.2) by electroporation. They were cultured in medium (DMEM with 10% FBS) containing 1 mg/ml G418 for two weeks. Clones of HEK293 cells that stably expressed human IDO1 protein were selected and expanded for IDO inhibition assay. The human IDO1/HEK293 cells were seeded at 10,000 cells per 50 μL per well with RPMI/phenol red free media contains 10% FBS in a 384-well black wall clear bottom tissue culture plate (Matrix Technologies LLC) 100 nL of certain concentration of compound was then added to each well using ECHO liquid handling systems. The cells were incubated for 20 hours in 37° C. incubator with 5% CO2. The compound treatments were stopped by adding trichloroacetic acid (Sigma-Aldrich) to a final concentration at 0.2%. The cell plate was further incubated at 50° C. for 30 minute. The equal volume supernatant ([…]) and 0.2% (w/v) Ehrlich reagent (4-dimethylaminobenzaldehyde, Sigma-Aldrich) in glacial acetic acid were mixed in a new clear bottom 384-well plate. This plate was then incubated at room temperature for 30 minute. The absorbance at 490 nm was measured on Envision plate reader. Compound IC50 values were calculated using the counts of 500 nM of a reference standard treatment as one hundred percent inhibition, and counts of no compound but DMSO treatment as zero percent inhibition.

The structures appear in SMILES notation.

The term IC50 denotes the point on the concentration scale where inhibition reaches its midpoint.

T1 sequence (P14902 whole entry): as above

The molecule `CCC(Nc1nnc(-c2ccc(Cl)cc2)o1)[C@H]1CC[C@@H](c2ccnc3ccc(C(F)(F)F)cc32)CC1` (single isomer, unassigned) [Example 58-1, 5-(4-Chlorophenyl)-N-(1-((1s,4s)-4-(6-(trifluoromethyl)quinolin-4-yl)cyclohexyl)propyl)-1,3,4-oxadiazol-2-amine] gave a 50% inhibitory concentration (IC50) in assay [1] of 326 nM.

`CCC(Nc1nnc(-c2ccc(Cl)cc2)o1)[C@H]1CC[C@@H](c2ccnc3ccc(C(F)(F)F)cc32)CC1` (single isomer, unassigned) [Example 58-2, 5-(4-Chlorophenyl)-N-(1-((1s,4s)-4-(6-(trifluoromethyl)quinolin-4-yl)cyclohexyl)propyl)-1,3,4-oxadiazol-2-amine]: inhibition in assay [1] was half-maximal at 7.4 nM (IC50).

Regarding `CCC(Nc1nnc(-c2ccc(OC)cc2)o1)C1CCC(c2ccnc3ccc(C(F)(F)F)cc23)CC1` (single isomer, unassigned) [Example 59, 5-(4-methoxyphenyl)-N-(1-((1s,4s)-4-(6-(trifluoromethyl)quinolin-4-yl)cyclohexyl)propyl)-1,3,4-oxadiazol-2-amine], the IC50 turned out to be 4.7 nM in assay [1] and 6 nM on human IDO1.

In assay [1], `CCC(Nc1nnc(-c2ccc(OC)cc2)o1)C1CCC(c2ccnc3ccc(C(F)(F)F)cc23)CC1` (single isomer, unassigned) [Example 60, 5-(4-methoxyphenyl)-N-(1-((1s,4s)-4-(6-(trifluoromethyl)quinolin-4-yl)cyclohexyl)propyl)-1,3,4-oxadiazol-2-amine] gave a half-maximal inhibitory concentration (IC50) of 54.8 nM.

Take `CCC(Nc1nnc(-c2ccc(F)cc2)o1)C1CCC(c2ccnc3ccc(C(F)(F)F)cc23)CC1` (single isomer, unassigned) [Example 62, 5-(4-fluorophenyl)-N-(1-((1s,4s)-4-(6-(trifluoromethyl)quinolin-4-yl)cyclohexyl)propyl)-1,3,4-oxadiazol-2-amine]: the half-maximal inhibitory concentration (IC50) was determined as 3.5 nM in assay [1] and 1.7 nM on human IDO1.

In assay [1], `CCC(Nc1nnc(-c2ccc(OC)cc2)o1)[C@H]1CC[C@@H](c2ccnc(F)c2C)CC1` (single isomer, unassigned) [Example 63-1, N-(1-((1s,4s)-4-(2-Fluoro-3-methylpyridin-4-yl)cyclohexyl)propyl)-5-(4-methoxyphenyl)-1,3,4-oxadiazol-2-amine] came in with a half-inhibitory concentration (IC50) of 26.2 nM.

`CCC(Nc1nnc(-c2ccc(OC)cc2)o1)C1CCC(Oc2ccnc3ccccc23)CC1` (single isomer, unassigned) [Example 64-1] returned a half-inhibitory concentration (IC50) in assay [1] of 916 nM.

In the case of `CCC(Nc1nnc(-c2ccc(OC)cc2)o1)C1CCC(Oc2ccnc3ccccc23)CC1` (single isomer, unassigned) [Example 64-2], in assay [1], half-maximal inhibition (IC50) was put at 8.9 nM.

`COCC(Nc1nnc(-c2ccc(OC)cc2)o1)[C@H]1CC[C@@H](c2ccnc3ccc(F)cc32)CC1` (single isomer, unassigned) [Example 65-1, N-(1-((1s,4s)-4-(6-Fluoroquinolin-4-yl)cyclohexyl)-2-methoxyethyl)-5-(4-methoxyphenyl)-1,3,4-oxadiazol-2-amine] gave an IC50 in assay [1] of 15.6 nM.

`COc1ccc(-c2csc(N[C@H](C)[C@H]3CC[C@@H](c4ccnc5ccc(F)cc54)CC3)n2)cc1` [Example 36, N—((R)-1-((1s,4S)-4-(6-Fluoroquinolin-4-yl)cyclohexyl)ethyl)-4-(4-methoxyphenyl)thiazol-2-amine]: at human IDO1, the IC50 is 729 nM.

For `C[C@@H](Nc1nc(-c2ccc(Cl)cc2)cs1)[C@H]1CC[C@@H](c2ccnc3ccc(F)cc32)CC1` [Example 37, 4-(4-Chlorophenyl)-N—((R)-1-((1s,4S)-4-(6-fluoroquinolin-4-yl)cyclohexyl)ethyl)thiazol-2-amine], the concentration for half-maximal inhibition (IC50) on human IDO1 came out at 858 nM.

In the case of `C[C@@H](Nc1ncc(-c2ccc(Cl)cc2)o1)[C@H]1CC[C@@H](c2ccnc3ccc(F)cc32)CC1` [Example 38, 5-(4-Chlorophenyl)-N—((R)-1-((1s,4S)-4-(6-fluoroquinolin-4-yl)cyclohexyl)ethyl)oxazol-2-amine], 21.1 nM corresponded to half-maximal inhibition in assay [1] (IC50).

In assay [1], `C[C@@H](Nc1ncc(-c2ccc(Cl)cc2)s1)[C@H]1CC[C@@H](c2ccnc3ccc(F)cc32)CC1` [Example 39, 5-(4-Chlorophenyl)-N—((R)-1-((1s,4S)-4-(6-fluoroquinolin-4-yl)cyclohexyl)ethyl)thiazol-2-amine] registered a concentration for half-maximal inhibition (IC50) of 288 nM.

On to `C[C@@H](Nc1nnc(-c2ccc(Cl)cc2)[nH]1)[C@H]1CC[C@@H](c2ccnc3ccc(F)cc32)CC1` [Example 40, 5-(4-Chlorophenyl)-N—((R)-1-((1s,4S)-4-(6-fluoroquinolin-4-yl)cyclohexyl)ethyl)-4H-1,2,4-triazol-3-amine], for which the IC50 on human IDO1 was found to be 126 nM.

As for `COc1ccc(-c2nnc(N[C@H](C)[C@H]3CC[C@@H](c4ccnc5ccc(F)cc54)CC3)[nH]2)cc1` [Example 42, N—((R)-1-((1s,4S)-4-(6-Fluoroquinolin-4-yl)cyclohexyl)ethyl)-5-(4-methoxyphenyl)-4H-1,2,4-triazol-3-amine], the IC50 at human IDO1 stood at 57.2 nM.

Take `C[C@@H](c1ncc(-c2ccc(Cl)cc2)o1)[C@H]1CC[C@@H](c2ccnc3ccc(F)cc32)CC1` [Example 43, 5-(4-Chlorophenyl)-2-((R)-1-((1s,4S)-4-(6-fluoroquinolin-4-yl)cyclohexyl)ethyl)oxazole]: the IC50 at human IDO1 came out at 288 nM.

For `C[C@@H](c1ncc(-c2ccc(F)cc2)o1)[C@H]1CC[C@@H](c2ccnc3ccc(F)cc32)CC1` [Example 45, 5-(4-Fluorophenyl)-2-((R)-1-((1s,4S)-4-(6-fluoroquinolin-4-yl)cyclohexyl)ethyl)oxazole], on human IDO1, the IC50 was 182 nM.

In the case of `C[C@@H](c1ncc(-c2ccc(C#N)cc2)o1)[C@H]1CC[C@@H](c2ccnc3ccc(F)cc32)CC1` [Example 46, 4-(2-((R)-1-((1s,4S)-4-(6-Fluoroquinolin-4-yl)cyclohexyl)ethyl)oxazol-5-yl)benzonitrile], the concentration for half-maximal inhibition (IC50) on human IDO1 worked out at 386 nM.

On to `C[C@@H](c1ncc(-c2ccc(F)cc2)[nH]1)[C@H]1CC[C@@H](c2ccnc3ccc(F)cc32)CC1` [Example 47, 6-Fluoro-4-((1S,4s)-4-((R)-1-(5-(4-fluorophenyl)-1H-imidazol-2-yl)ethyl)cyclohexyl)quinoline], for which the half-inhibitory concentration (IC50) on human IDO1 is 18.3 nM.

For the molecule `CCC(Nc1nnc(-c2ccc(OC)cc2)o1)C1CCC(c2ccnc3ccc(F)cc23)CC1` (centres unmarked) [Example 50, N-(1-((1r,4r)-4-(6-Fluoroquinolin-4-yl)cyclohexyl)propyl)-5-(4-methoxyphenyl)-1,3,4-oxadiazol-2-amine], the IC50 on human IDO1 was 122 nM.

For the molecule `CCC(c1nnc(-c2ccc(OC(C)C)cc2)[nH]1)C1CCC(c2ccnc3ccc(F)cc23)CC1` (centres unmarked) [Example 51, 6-Fluoro-4-(4-(1-(5-(4-isopropoxyphenyl)-4H-1,2,4-triazol-3-yl)propyl)cyclohexyl)quinoline], at human IDO1, the half-maximal inhibitory concentration (IC50) came to 71.1 nM.

For the molecule `CCC(c1nnc(-c2ccc(OC(C)C)cc2)[nH]1)C1CCC(c2ccnc3ccc(F)cc23)CC1` (centres unmarked) [Example 53, 6-Fluoro-4-(4-(1-(5-(4-isopropoxyphenyl)-4H-1,2,4-triazol-3-yl)propyl)cyclohexyl)quinoline], at human IDO1, the IC50 came to 144 nM.

As for `CCC(c1nnc(-c2ccc(OC(C)C)cc2)o1)C1CCC(c2ccnc3ccc(F)cc23)CC1` (centres unmarked) [Example 54, 2-(1-(4-(6-Fluoroquinolin-4-yl)cyclohexyl)propyl)-5-(4-isopropoxyphenyl)-1,3,4-oxadiazole], at human IDO1, the IC50 came to 68.8 nM.

Take `CCC(Nc1nnc(-c2ccc(OC)cc2)o1)[C@H]1CC[C@@H](c2ccnc3c(C(F)(F)F)cccc32)CC1` (some centres unmarked) [Example 68, 5-(4-Methoxyphenyl)-N-(1-((1s,4s)-4-(8-(trifluoromethyl)quinolin-4-yl)cyclohexyl)propyl)-1,3,4-oxadiazol-2-amine]: the IC50 in assay [1] is 20.2 nM.

The values are drawn from US11351164B2, “Inhibitors of indoleamine 2,3-dioxygenase and methods of their use” (BRISTOL-MYERS SQUIBB COMPANY, priority 2016, dated 2022).
